# “Also recorded” adds a separate entry of the source.
# Key:
# [1] = test system: mTORC2; assay: p-AKT signaling in Hela cells by immunoblotting; format: cell-based; settings: up to 50 μM
# [2] = target: T1, Lamtor (a.k.a. Ragulator) and Rag GTPase protein complexes (Homo sapiens, UniProt O43504); assay: Visual-IP of Rag GTPase binding to bead-bound Lamtor (Ragulator); settings: for disruption of Rag GTPase-Lamtor interaction (Visual IP): in vitro, GFP-RagB on RFP-Ragulator beads, 50 μM compound in small-scale screens
# T1 construct: RFP (on the Ragulator complex); GST (large-scale screen); on the Ragulator complex; made in house; host or cells: HEK293T (small-scale screen), HEK293F (large-scale screen), transient transfection
# Description: To assay for mTORC1-inhibiting compounds, we in vitro-reconstituted the interaction between the Lamtor (a.k.a. Ragulator) and Rag GTPase protein complexes, which are essential for amino acid-driven mTORC1 recruitment (and thus activation) to the lysosome (24, 30, 36, 37). We sequentially coated agarose beads with RFP-tagged Ragulator and with GFP-tagged Rag GTPases, resulting in Rag binding to the beads via their interaction with Lamtor. This method, which we call ‘Visual co-immunoprecipitation’ (Visual-IP) is essentially a binding reaction at equilibrium, in which the interaction between the two binding partners can be easily scored as color overlap between the bead-bound, red-tagged Lamtor and the soluble, green-fluorescent Rag GTPases. Interaction between the two proteins results in red-green color overlap (‘yellow beads’), whereas when the interaction is disrupted, partial or complete dispersion of the green signal in the surrounding buffer is observed (‘red beads’) (FIG. 1A and FIG. 1B). This assay could easily be scaled up and implemented in 384-well plates, which were imaged with the aid of an automated fluorescence microscope (FIG. 1C).
# HEK293T cells were plated on 15 cm plates at 10 million cells per plate. 24 hours later, the cells were transfected using 500 μL OptiMEM transfection media, 60 μL polyethyleneimine (PEI, Sigma) and 10 μg total DNA. The transfection mix was incubated for 15 minutes and then added directly to the cell media. 48 hours later, the media was removed, and the cells were washed three times with PBS. The cells were scraped from the plate and collected in 10 mL PBS. The samples were centrifuged for 5 minutes at 1500 g at 4° C. The cell pellets were then resuspended in 1 mL Triton lysis buffer (1% Triton X-100, 130 mM NaCl, 2 mM EGTA, 2.5 mM MgCl2, 25 mM HEPES, pH 7.4, 10% glycerol, protease inhibitor (Pierce)), and allowed to rotate at 4° C. for 20 minutes. The samples were then centrifuged at 13000 g for 2 minutes, and the supernatant was separated for immunoprecipitation. 50 μL of washed anti-FLAG affinity beads (Sigma) were added to the supernatant and the sample was rotated at 4° C. for 2 hours. After immunoprecipitation, the samples were washed twice in Triton lysis buffer, once in high salt (500 mM NaCl) lyso sucrose buffer, and once in normal salt lyso sucrose buffer (250 mM sucrose, 10 mM KCl, 2 mM EGTA, 2.5 mM MgCl2, 25 mM HEPES, pH 7.4, 10% glycerol, protease inhibitor (Pierce)). Each wash consisted of rotating with the wash buffer for 5 minutes at 4° C. and subsequent centrifugation at 2000 g for 1 minute. For elution off FLAG beads, 3×-FLAG peptide in Phosphate Buffered Saline (PBS) was added to the sample, [RL2] and the sample was allowed to rotate overnight at 4° C. […]
# [3] = test system: RagC and RagA; assay: Rag GTPase lysosomal localization, immunofluorescence in HeLa cells; format: cell-based; settings: 50 μM, 1 h
# Experimental: (§1) Next, we sought to determine whether YP 1-44 had expected cellular effects in disrupting the TORC1 complex, recruitment of TORC1 to the lysosome, and TORC1 signaling. We treated Hela cells with YP 1-44 for 1 h with and without amino acid stimulation. […] This finding is consistent with the role of Lamtor as an obligate scaffold not only for mTORC1 but also for the Rag GTPases at the lysosome. […] Thus, our results establish that YP 1-44 abolishes mTORC1 signaling both in vitro and in live cells by preventing mTORC1 localization to the lysosome, and that this action occurs via disruption of the Lamtor-Rag scaffold.
# HeLa cells were plated on fibronectin-coated glass coverslips in 6-well plates (35 mm diameter/well), at 300,000-500,000 cells/well. 12-16 hours later, cells were subjected to amino acid depletion for 1 h in the presence of 50 uM compounds or an equivalent volume of DMSO, restimulated with a complete amino acid mix for 10 minutes, and fixed in 4% paraformaldehyde (in PBS) for 15 min at RT. The coverslips were rinsed twice with PBS and cells were permeabilized with 0.1% (w/v) Saponin in PBS for 10 min. After rinsing twice with PBS, the slides were incubated with primary antibody in 5% normal donkey serum for 1 hr at room temperature, rinsed four times with PBS, and incubated with fluorophore-conjugated secondary antibodies produced in goat or donkey (Life Technologies, diluted 1:1000 in 5% normal donkey serum) for 45 min at room temperature in the dark, washed four times with PBS. Coverslips were mounted on glass slides using Vectashield (Vector Laboratories) and imaged on a spinning disk confocal system (Andor Revolution on a Nikon Eclipse Ti microscope).
# [4] = test system: mTOR localization to LAMP2-positive lysosomes; assay: mTORC1 recruitment assay, immunofluorescence in HeLa cells; format: cell-based; settings: 50 μM, 1 h, amino acid stimulation
# Experimental: as §1
# HeLa cells were plated on fibronectin-coated glass coverslips in 6-well plates (35 mm diameter/well), at 300,000-500,000 cells/well. 12-16 hours later, cells were subjected to amino acid depletion for 1 h in the presence of 50 uM compounds or an equivalent volume of DMSO, restimulated with a complete amino acid mix for 10 minutes, and fixed in 4% paraformaldehyde (in PBS) for 15 min at RT. The coverslips were rinsed twice with PBS and cells were permeabilized with 0.1% (w/v) Saponin in PBS for 10 min. […]
SMILES,effect on canonical mTORC2 substrate pAKT [1],disruption of Rag GTPase-Lamtor interaction (Visual IP) [2],RagA localization to LAMP2-positive lysosomes [3],RagC localization to LAMP2-positive lysosomes [3],RagA localization to LAMP2-positive lysosomes ([3]; listed as YP1-44),RagC localization to LAMP2-positive lysosomes ([3]; listed as YP1-44),"displacement of Rag and Lamtor interactions ([2]; 10 μM, dose-responsive)",disruption of Rag GTPase-Lamtor interaction (Visual IP) ([2]; listed as YP1-44),amino acid-induced mTOR localization to LAMP2-positive lysosomes [4],amino acid-induced mTOR localization to LAMP2-positive lysosomes ([4]; listed as YP1-44)
C=CC(=O)N1CCc2c(OCc3cc(C(F)(F)F)cc(C(F)(F)F)c3)cccc21 [CC 1-44],did not affect,does not; also recorded: did not break the LAMTOR-Rag interaction in vitro,,,,,,,,
C=CC(=O)n1ccc2ccccc21 [YP 1-44],,causes RagB dissociation from Lamtor; also recorded: disrupted the interaction,no longer localized to the lysosome,no longer localized to the lysosome,causes dispersion of RagA from LAMP2-positive lysosomes,causes dispersion of RagC from LAMP2-positive lysosomes,~50%,dispersion of the GFP-RagB signal,disrupts amino acid-induced mTOR localization,mTORC1 recruitment fails
